Measured values reported in patent US20230406883A1, “COMPOUNDS AND THEIR USE IN TREATMENT OF TACHYKININ RECEPTOR MEDIATED DISORDERS” (Embark Biotech ApS, priority 2020, published 2023).
Numbered stars: 1 amine (or outer) side, 2 acyl side, 3 side chain; on linkers, the order of the positions; unused ones are H or OH. Square brackets hold non-standard residues; d marks the D form. Peptide text beside a SMILES is read from it. * marks the point of attachment. C20 diacid = O=C(O)CCCCCCCCCCCCCCCCCCC(=O)*; C18 diacid = O=C(O)CCCCCCCCCCCCCCCCC(=O)*; γGlu = O=C(O)[C@H](CCC(=O)[*:2])N[*:1]; mTyr = N[C@@H](Cc1cccc(O)c1)C(=O)O; NMeL = CN[C@@H](CC(C)C)C(=O)O; hSer = N[C@@H](CCO)C(=O)O; Nle = CCCC[C@H](N)C(=O)O; AEEA = NCCOCCOCC(=O)O; Aib = CC(C)(N)C(=O)O; βAla = NCCC(=O)O

What was measured:
Experiment in all cases: IP3 assay (inositol trisphosphate, 3H-myoinositol) in transiently transfected COS-7 cells
Type in all cases: cell-based
hNK2R = target: T1, hNK2R (Homo sapiens, UniProt P21452); details: for EC50 / hNK2R, IP3 Efficacy: COS-7 cells; for EC50: 0.2% ovalbumin buffer; for hNK2R, IP3 Efficacy: figure legends: percent of 10^-6 M NKA
T1 construct: host or cells: COS-7
T1 sequence (P21452 1-398): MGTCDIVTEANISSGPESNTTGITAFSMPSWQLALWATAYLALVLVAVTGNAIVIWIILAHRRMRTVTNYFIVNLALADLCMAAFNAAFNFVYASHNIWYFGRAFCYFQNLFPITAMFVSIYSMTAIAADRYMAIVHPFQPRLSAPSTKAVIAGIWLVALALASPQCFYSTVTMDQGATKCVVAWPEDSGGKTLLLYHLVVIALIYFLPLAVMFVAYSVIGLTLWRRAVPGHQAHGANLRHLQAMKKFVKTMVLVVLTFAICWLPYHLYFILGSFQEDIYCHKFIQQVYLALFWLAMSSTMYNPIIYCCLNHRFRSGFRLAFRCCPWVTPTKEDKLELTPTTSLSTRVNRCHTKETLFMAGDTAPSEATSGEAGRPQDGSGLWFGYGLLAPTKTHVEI
Procedure: (§1) Agonist-induced G-protein coupled receptor (GPCR) activation was measured by an Inositol-1,4,5-Trisphosphate [^3H] Radioreceptor Assay (IPs Assay). Assays were carried out using COS-7 cells transiently transfected by calcium phosphate transfection with a vector pcDNA3.1(+) encoding one of the indicated receptors (Genscript). Briefly, DNA mixed with CaCl2 (2 M) and TE-buffer (10 mM Tris-HCl, 1 mM EDTA, pH 7.5) was dropwise added to 2×HBS (50 mM HEPES, 280 mM NaCl, 1.5 mM NaH2PO4, pH 7.2) and incubated for 45 min at room temperature (22±2° C.). The mixture and a final concentration of 100 μM Chloroquine were added to the cells and left to incubate for 5 hours at 37° C. under standard cell culture conditions (10% CO2) before changing medium to fresh medium containing 5 μl/mL Myo-[2-^3H(N)]-inositol (labelling medium).
(§2) The IP3 assay takes advantage of the tachykinin receptors' ability to induce production of the inositol trisphosphate (IP3) second messenger upon agonist (ligand) binding on receptor expressing cells following an initial ^3H-inositol labelling period. In effect this means that production of the second messenger IP3 as a measure of receptor activity can be assessed by counting ^3H-activity.
(§3) Assay solutions used: Wash buffer (HBSS), Assay buffer (HBSS+10 mM LiCl and 0,2% w/v ovalbumin), Lysis buffer (10 mM formic acid), and SPA YSI beads (12.5 mg/ml in H2O). The assay was performed the day after transfection. Briefly, labelling medium was aspirated, and plates were washed ×1 in wash buffer before adding 100 μl assay buffer, pre-incubated for 30 min followed by 120 min incubation with agonist, both at 37° C. After incubation, plates were immediately placed on ice and the incubation medium was aspirated and 40 μl of 10 mM formic acid per well was added. Plates were incubated for at least 30 min on ice. 60 μl (1 mg/well) SPA YSI beads/well was pipetted into a solid white 96 wells plate and 35 μl of the lysis solution was transferred to the plate before covering plates with seal cover and shaking for 10 min. (max speed). Centrifuge plates and leave for 8 hours at room temperature before counting the plates in a MicroBeta plate counter (Perkin Elmer).

hNK1R = target: T2, hNK1R (Homo sapiens, UniProt P25103); details: COS-7 cells; for EC50: 0.2% ovalbumin buffer; for hNK1R, IP3 Efficacy: figure legends: percent of 10^-6 M NKA
T2 construct: host or cells: COS-7
T2 sequence (P25103 whole entry): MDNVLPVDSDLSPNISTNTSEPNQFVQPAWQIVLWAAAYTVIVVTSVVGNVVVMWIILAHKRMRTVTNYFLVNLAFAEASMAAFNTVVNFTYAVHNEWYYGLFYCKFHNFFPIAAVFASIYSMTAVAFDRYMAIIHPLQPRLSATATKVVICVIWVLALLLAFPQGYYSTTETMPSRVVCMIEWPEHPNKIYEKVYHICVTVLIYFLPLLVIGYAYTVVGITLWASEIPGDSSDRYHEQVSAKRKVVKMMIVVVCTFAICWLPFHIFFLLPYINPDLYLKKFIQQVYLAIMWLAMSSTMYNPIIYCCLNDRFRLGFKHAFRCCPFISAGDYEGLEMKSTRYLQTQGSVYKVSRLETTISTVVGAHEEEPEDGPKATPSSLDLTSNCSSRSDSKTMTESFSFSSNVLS
Procedure: as §1, §2, §3

hNK3R = target: T3, hNK3R (Homo sapiens, UniProt P29371); details: COS-7 cells; for EC50: 0.2% ovalbumin buffer, read-out: hNK3, IP3 EC50; for hNK3, IP3 Efficacy: figure legends: percent of 10^-6 M NKA
T3 construct: host or cells: COS-7
T3 sequence (P29371 1-465): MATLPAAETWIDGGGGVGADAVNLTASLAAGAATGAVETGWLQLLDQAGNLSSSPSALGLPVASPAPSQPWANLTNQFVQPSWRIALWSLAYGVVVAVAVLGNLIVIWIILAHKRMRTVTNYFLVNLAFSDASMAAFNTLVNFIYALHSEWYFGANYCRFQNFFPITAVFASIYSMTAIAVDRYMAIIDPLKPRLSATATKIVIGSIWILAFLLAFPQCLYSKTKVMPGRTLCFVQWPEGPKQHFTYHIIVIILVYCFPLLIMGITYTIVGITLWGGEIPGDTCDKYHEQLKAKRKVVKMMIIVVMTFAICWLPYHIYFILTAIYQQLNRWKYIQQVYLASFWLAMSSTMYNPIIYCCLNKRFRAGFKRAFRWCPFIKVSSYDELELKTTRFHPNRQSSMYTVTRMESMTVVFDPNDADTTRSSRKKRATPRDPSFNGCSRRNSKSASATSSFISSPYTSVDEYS
Procedure: as §1, §2, §3

Compound	EC50 (hNK2R) [nM]	hNK2R, IP3 Efficacy (hNK2R) [%]	EC50 (hNK1R) [nM]	hNK1R, IP3 Efficacy (hNK1R) [%]	EC50 (hNK3R) [nM]	hNK3, IP3 Efficacy (hNK3R) [%]	hNK2R receptor activation, in words (hNK2R)
COCC[C@H](NC(=O)[C@H](CC(C)C)N(C)C(=O)CNC(=O)[C@@H](NC(=O)[C@H](Cc1ccccc1)NC(=O)[C@H](CCCCN)NC(=O)[C@H](CC(=O)O)NC(=O)COCCOCCNC(=O)COCCOCCNC(=O)CC[C@H](NC(=O)CCCCCCCCCCCCCCCCC(=O)O)C(=O)O)C(C)C)C(N)=O [compound 384, *Asp;Lys;Phe;Val;Gly;NmLeu;Metox;NH2] ({C18 diacid-γGlu-AEEA-AEEA}-DKFVG[NMeL][hSer](Me)-NH2)	0.9	95	16	80	10	85	
CCCC[C@H](NC(=O)[C@H](CC(C)C)NC(=O)[C@@H](CO)NC(=O)[C@@H](NC(=O)[C@H](Cc1ccccc1)NC(=O)[C@H](CCCCN)NC(=O)[C@H](CC(=O)O)NC(=O)COCCOCCNC(=O)COCCOCCNC(=O)CC[C@H](NC(=O)CCCCCCCCCCCCCCCCC(=O)O)C(=O)O)C(C)C)C(N)=O [compound 385, *Asp;Lys;Phe;Val;dSer;Leu;Nle;NH2] ({C18 diacid-γGlu-AEEA-AEEA}-DKFV[dS]L[Nle]-NH2)	4.5	46		0		0	
CCCC[C@H](NC(=O)[C@H](CC(C)C)NC(=O)CCNC(=O)[C@@H](NC(=O)[C@H](Cc1ccccc1)NC(=O)[C@H](CO)NC(=O)[C@H](CC(=O)O)NC(=O)[C@@H](NC(=O)[C@H](CCCCN)NC(=O)COCCOCCNC(=O)COCCOCCNC(=O)CC[C@H](NC(=O)CCCCCCCCCCCCCCCCC(=O)O)C(=O)O)[C@@H](C)O)C(C)C)C(N)=O [compound 322, *Lys;Thr;Asp;Ser;Phe;Val;bAla;Leu;Nle;NH2] ({C18 diacid-γGlu-AEEA-AEEA}-KTDSFV[βAla]L[Nle]-NH2)	~130	53		0	~160	80	
CCCC[C@H](NC(=O)[C@H](CC(C)C)N(C)C(=O)CNC(=O)[C@@H](NC(=O)[C@H](Cc1ccc(I)cc1)NC(=O)[C@H](CCCCN)NC(=O)[C@H](CC(=O)O)NC(=O)COCCOCCNC(=O)COCCOCCNC(=O)CC[C@H](NC(=O)CCCCCCCCCCCCCCCCC(=O)O)C(=O)O)C(C)C)C(N)=O [compound 330, *Asp;Lys;4-I-Phe;Val;Gly;NmLeu;Nle;NH2]		0	~170	40		0	completely destroys NK2R activation
COc1ccc(C[C@H](NC(=O)[C@H](CC(C)C)N(C)C(=O)CNC(=O)[C@@H](NC(=O)[C@H](Cc2ccccc2)NC(=O)[C@H](CCCCN)NC(=O)[C@H](CC(=O)O)NC(=O)COCCOCCNC(=O)COCCOCCNC(=O)CC[C@H](NC(=O)CCCCCCCCCCCCCCCCC(=O)O)C(=O)O)C(C)C)C(N)=O)cc1 [compound 370, *Asp;Lys;Phe;Val;Gly;NmLeu;4-MeOPhe;NH2] ({C18 diacid-γGlu-AEEA-AEEA}-DKFVG[NMeL]Y(Me)-NH2)	10	90		20		0	
CCCC[C@H](NC(=O)[C@H](CC(C)C)N(C)C(=O)CNC(=O)[C@@H](NC(=O)[C@H](Cc1ccc(O)cc1)NC(=O)[C@H](CCCCN)NC(=O)[C@H](CC(=O)O)NC(=O)COCCOCCNC(=O)COCCOCCNC(=O)CC[C@H](NC(=O)CCCCCCCCCCCCCCCCCCC(=O)O)C(=O)O)C(C)C)C(N)=O [compound 380, *Asp;Lys;Tyr;Val;Gly;NmLeu;Nle;NH2] ({C20 diacid-γGlu-AEEA-AEEA}-DKYVG[NMeL][Nle]-NH2)	1.5	90	58	20	~160	30	
CCCC[C@H](NC(=O)[C@H](CC(C)C)N(C)C(=O)CNC(=O)[C@@H](NC(=O)[C@H](Cc1ccc(O)cc1)NC(=O)[C@H](CCCCN)NC(=O)[C@@H](N)CC(=O)O)C(C)C)C(N)=O [compound 374, Asp;Lys;Tyr;Val;Gly;NmLeu;Nle;NH2] (H-DKYVG[NMeL][Nle]-NH2)	5.8	90	200	50		0	
CCCC[C@H](NC(=O)[C@H](CC(C)C)N(C)C(=O)CCNC(=O)[C@@H](NC(=O)[C@H](Cc1ccccc1)NC(=O)[C@H](CO)NC(=O)[C@H](CC(=O)O)NC(=O)[C@@H](NC(=O)[C@H](CCCCN)NC(=O)COCCOCCNC(=O)COCCOCCNC(=O)CC[C@H](NC(=O)CCCCCCCCCCCCCCCCC(=O)O)C(=O)O)[C@@H](C)O)C(C)C)C(N)=O [compound 310, *Lys;Thr;Asp;Ser;Phe;Val;bAla;NmLeu;Nle;NH2] ({C18 diacid-γGlu-AEEA-AEEA}-KTDSFV[βAla][NMeL][Nle]-NH2)	45	65		0		80	
CCCC[C@H](NC(=O)[C@H](CC(C)C)NC(=O)C(C)(C)NC(=O)[C@@H](NC(=O)[C@H](Cc1ccccc1)NC(=O)[C@H](CCCCN)NC(=O)[C@H](CC(=O)O)NC(=O)COCCOCCNC(=O)COCCOCCNC(=O)CC[C@H](NC(=O)CCCCCCCCCCCCCCCCC(=O)O)C(=O)O)C(C)C)C(N)=O [compound 373, *Asp;Lys;Phe;Val;Aib;Leu;Nle;NH2] ({C18 diacid-γGlu-AEEA-AEEA}-DKFV[Aib]L[Nle]-NH2)	4.3	89	~136	66		0	
COCC[C@H](NC(=O)[C@H](CC(C)C)N(C)C(=O)CNC(=O)[C@@H](NC(=O)[C@H](Cc1ccc(O)cc1)NC(=O)[C@H](CCCCN)NC(=O)[C@H](CCC(=O)O)NC(=O)COCCOCCNC(=O)COCCOCCNC(=O)CC[C@H](NC(=O)CCCCCCCCCCCCCCCCC(=O)O)C(=O)O)C(C)C)C(N)=O [compound 382, *Glu;Lys;Tyr;Val;Gly;NmLeu;Metox;NH2] ({C18 diacid-γGlu-AEEA-AEEA}-EKYVG[NMeL][hSer](Me)-NH2)	3.7	95	~3800	30		20	
CCCC[C@H](NC(=O)[C@H](CC(C)C)N(C)C(=O)CNC(=O)[C@@H](NC(=O)[C@H](Cc1cccc(O)c1)NC(=O)[C@H](CCCCN)NC(=O)[C@H](CC(=O)O)NC(=O)COCCOCCNC(=O)COCCOCCNC(=O)CC[C@H](NC(=O)CCCCCCCCCCCCCCCCC(=O)O)C(=O)O)C(C)C)C(N)=O [compound 361, *Asp;Lys;3-OH-Phe;Val;Gly;NmLeu;Nle;NH2] ({C18 diacid-γGlu-AEEA-AEEA}-DK[mTyr]VG[NMeL][Nle]-NH2)	2.3	100	200	70	~47000	60	
